This experiment is described as follows: Inhibition of peptide deformylase using N-formylmethionine-alanine-serineas substrate incubated for 10 min before substrate addition by PDF-FDH coupled assay.

Each structure is given as a SMILES string.

By pIC50 is commonly meant the IC50 on a negative log10 scale, so that one unit is a factor of ten. `O=C(CN(CCC1CCCC1)C(=O)N1CCC[C@H]1C(=O)Nc1cnccn1)NO` displayed a pIC50 of 7.27.
The same measure for `CC(C)CCNC(=O)[C@@H]1CCCN1C(=O)N(CCC(C)C)CC(=O)NO`: 7.92; for `CNC(=O)[C@@H]1CCCN1C(=O)N(CCC(C)C)CC(=O)NO`: 7.21; for `CCCC[C@H](CC(=O)NO)C(=O)N1CCC[C@H]1C(=O)NC`: 8.
For the compound `CCCCCNC(=O)[C@@H]1CCCN1C(=O)[C@H](CCCC)[C@H](F)C(=O)NO`, the pIC50 was 7.89. The pIC50 values of the last two compounds are within 0.2 log units of each other.
In the case of `O=C(CN(CCC1CCCC1)C(=O)N1CCC[C@H]1C(=O)Nc1ncccn1)NO`, the pIC50 worked out at 7.68.
The compound `CC(C)CCN(CC(=O)NO)C(=O)N1CCC[C@H]1C(=O)Nc1nccs1` registered a pIC50 of 6.49.
`CCCC[C@@H](C(=O)N1CCC[C@H]1C(=O)N1CCN(c2ccccc2F)CC1)[C@H](F)C(=O)NO` gave a pIC50 of 8.22.
In the case of `CCCC[C@@H](C(=O)N1CCC[C@H]1C(=O)Nc1nc(C)c(C)s1)[C@H](F)C(=O)NO` it was 8.7.
The same measure for `CCCC[C@@H](C(=O)N1CCC[C@H]1C(=O)NC1CCCCC1)[C@H](F)C(=O)NO`: 8.04.
In the case of `Cc1nc(NC(=O)[C@@H]2CCCN2C(=O)N(CCC2CCCC2)CC(=O)NO)sc1C` it was 8.7.
In turn, `CCCC[C@@H](C(=O)N1CCC[C@H]1C(=O)N1CCCCC1)[C@H](F)C(=O)NO` came in with a pIC50 of 7.66.
The same measure for `CCCC[C@@H](C(=O)N1CCC[C@H]1C(=O)NCC(O)CC)[C@H](F)C(=O)NO` (some centres undefined): 8.15; for `CCCC[C@@H](C(=O)N1CCC[C@H]1C(=O)N1CCN(c2ccccc2F)CC1)[C@H](O)C(=O)NO`: 8.3; for `CCCC[C@@H](C(=O)N1CCC[C@H]1C(=O)NC)[C@@H](F)C(=O)NO`: 7.57.
In the case of `CCCC[C@@H](C(=O)N1CCC[C@H]1C(=O)NC(C)C)[C@H](O)C(=O)NO` it was 8.15; in that of `Cc1cnc(NC(=O)[C@@H]2CCCN2C(=O)N(CCC(C)C)CC(=O)NO)s1`, 7.2; in that of `CCCC[C@H](CC(=O)NO)C(=O)N1CCC[C@H]1C(=O)Nc1nc(-c2ccccc2)cs1`, 8.04.
In the case of `CCCC[C@@H](C(=O)N1CCCC[C@H]1C(=O)NCCC)[C@H](O)C(=O)NO` it was 8.17.
In the case of `CC(C)CCN(CC(=O)NO)C(=O)N1CCC[C@H]1C(=O)Nc1nnc(-c2ccccc2)s1`, the pIC50 is recorded as 7.01.
The same measure for `CCCC[C@@H](C(=O)N1CCC[C@H]1C(=O)Nc1ccc(Cl)c(Cl)c1)[C@H](F)C(=O)NO`: 9; for `CCCC[C@@H](C(=O)N1CCC[C@H]1C(=O)N1CCOCC1)[C@H](F)C(=O)NO`: 7.89; for `CCCCCNC(=O)[C@@H]1CCCN1C(=O)[C@H](CCCC)[C@H](O)C(=O)NO`: 8.1.
In the case of `Cc1nc(NC(=O)[C@@H]2CCCN2C(=O)N(CCC(C)C)CC(=O)NO)sc1C` it was 8.52; in that of `CCCC[C@@H](C(=O)N1CCC[C@H]1C(=O)N1CCCCC1)[C@H](O)C(=O)NO`, 7.89.
The same measure for `CCCC[C@@H](C(=O)N1CC[C@H]1C(=O)NCCC)[C@H](O)C(=O)NO`: 8.17; for `CCCC[C@@H](C(=O)N1CCC[C@H]1C(=O)NC(C)(C)CC)[C@H](O)C(=O)NO`: 8.1; for `CCCC[C@@H](C(=O)N1CCC[C@H]1C(=O)N1CCN(c2ncccn2)CC1)[C@H](F)C(=O)NO`: 8.22.
`CCCC[C@@H](C(=O)N1CCC[C@H]1C(=O)NC1CCCCC1)[C@H](O)C(=O)NO` showed a pIC50 of 8.52.
As for `CCCC[C@@H](C(=O)N1CCC[C@H]1C(=O)OC(C)(C)C)[C@H](OS(=O)(=O)O)C(=O)NO`, the pIC50 is 7.52.
The same measure for `CCc1nnc(NC(=O)[C@@H]2CCCN2C(=O)N(CCC(C)C)CC(=O)NO)s1`: 7.74; for `CCCC[C@@H](C(=O)N1CCC[C@H]1C(=O)OC(C)(C)C)[C@@H](O)C(=O)NO`: 8.22; for `O=C(CN(CCC1CCCC1)C(=O)N1CCC[C@H]1C(=O)Nc1cccc(O)c1)NO`: 7.77.
In the case of `CCCC[C@@H](C(=O)N1CCC[C@H]1C(=O)N1CCC1)[C@H](O)C(=O)NO` it was 7.77; in that of `CCCCNC(=O)[C@@H]1CCCN1C(=O)[C@H](CCCC)[C@H](F)C(=O)NO`, 7.8.
The same measure for `C=CCNC(=O)[C@@H]1CCCN1C(=O)[C@H](CCCC)[C@@H](F)C(=O)NO`: 7.8.
Compound `CCCC[C@@H](C(=O)N1CCC[C@H]1C(=O)N1CCN(c2ncccn2)CC1)[C@H](O)C(=O)NO` yielded a pIC50 of 8.52.
The same measure for `O=C(CN(CCC1CCCC1)C(=O)N1CCC[C@H]1C(=O)Nc1ccc2c(c1)OCO2)NO`: 8.1; for `O=C(CN(CCC1CCCC1)C(=O)N1CCC[C@H]1C(=O)Nc1nccc(-c2ccccc2)n1)NO`: 7.17; for `CCCC[C@@H](C(=O)N1CCC[C@H]1C(=O)N1CCC1)[C@H](F)C(=O)NO`: 7.54.
`CCCC[C@H](CC(=O)NO)C(=O)N1CCC[C@H]1C(=O)Nc1nc2ccccc2s1`: the negative-log IC50 (pIC50) was determined as 8.52.
In the case of `CCCC[C@@H](C(=O)N1CCC[C@H]1C(=O)N1CCCC1)[C@H](O)C(=O)NO` it was 7.62.
In the case of `Cc1nnc(NC(=O)[C@@H]2CCCN2C(=O)N(CCC(C)C)CC(=O)NO)s1` it was 7.92; in that of `CCCC[C@@H](C(=O)N1CCC[C@H]1C(=O)OC(C)(C)C)[C@@H](OC)C(=O)NO`, 7.3; in that of `CC(C)CCN(CC(=O)NO)C(=O)N1CCC[C@H]1C(=O)Nc1ccc2c(c1)OCO2`, 7.96.
The same measure for `CCCC[C@@H](C(=O)N1CCC[C@H]1C(=O)NC)[C@H](O)C(=O)NO`: 8; for `CCCC[C@@H](C(=O)N1CCC[C@H]1C(=O)NCCC)[C@H](F)C(=O)NO`: 7.89; for `CCCC[C@@H](C(=O)N1CCC[C@H]1C(=O)NCCC)[C@H](O)C(=O)NO`: 8.1.
Compound `CCCC[C@@H](C(=O)N1CCC[C@H]1C(=O)Nc1nc(C)c(C)s1)[C@@H](F)C(=O)NO` returned a negative-log IC50 (pIC50) of 8.7.

Values taken from ChEMBL document CHEMBL3045733, “3D-QSAR and molecular docking studies of hydroxamic acids as peptide deformylase inhibitors” (Med Chem Res, 2012).
